Reference: ChEMBL document CHEMBL4406906, “Discovery of potent and selective butyrylcholinesterase inhibitors through the use of pharmacophore-based screening” (Bioorg Med Chem Lett, 2019)
Active and inactive are the calls of the source. No cut-off for these calls is given here. Where a SMILES comes first, the peptide text is derived from it. The star is where a group is joined. Boc = CC(C)(C)OC(=O)*

Tests used:
[1] = target: Acetylcholinesterase (Homo sapiens) (UniProt P22303); assay: Inhibition of AChE (unknown origin) at 5000 nM by Ellman's method
Cholinesterase [2] = target: T1, Cholinesterase (Homo sapiens, UniProt P06276); assay: Inhibition of BChE (unknown origin) at 5 uM incubated for 10 mins by Ellman's method relative to control
Cholinesterase [3] = target: T1, Cholinesterase
Description: Inhibition of BChE (unknown origin) incubated for 10 mins by Ellman's method

Acetylcholinesterase (Homo sapiens), sequence (P22303 whole entry): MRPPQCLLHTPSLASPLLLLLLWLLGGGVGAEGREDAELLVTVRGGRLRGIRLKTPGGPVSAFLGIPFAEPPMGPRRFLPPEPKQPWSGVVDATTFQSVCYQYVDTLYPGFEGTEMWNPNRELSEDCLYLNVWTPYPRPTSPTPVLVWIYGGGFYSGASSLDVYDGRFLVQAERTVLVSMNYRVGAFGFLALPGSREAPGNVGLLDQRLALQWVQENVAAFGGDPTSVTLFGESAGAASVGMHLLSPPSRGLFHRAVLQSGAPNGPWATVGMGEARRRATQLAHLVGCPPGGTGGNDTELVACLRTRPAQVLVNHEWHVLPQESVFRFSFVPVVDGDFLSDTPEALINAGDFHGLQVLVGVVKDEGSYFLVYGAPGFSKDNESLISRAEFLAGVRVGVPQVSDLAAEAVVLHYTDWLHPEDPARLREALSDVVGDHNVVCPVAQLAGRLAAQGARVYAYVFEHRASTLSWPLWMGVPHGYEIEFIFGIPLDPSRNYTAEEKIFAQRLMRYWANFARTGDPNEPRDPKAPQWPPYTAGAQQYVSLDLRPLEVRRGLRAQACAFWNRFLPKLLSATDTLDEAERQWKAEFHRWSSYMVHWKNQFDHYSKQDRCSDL
T1 sequence (P06276 whole entry): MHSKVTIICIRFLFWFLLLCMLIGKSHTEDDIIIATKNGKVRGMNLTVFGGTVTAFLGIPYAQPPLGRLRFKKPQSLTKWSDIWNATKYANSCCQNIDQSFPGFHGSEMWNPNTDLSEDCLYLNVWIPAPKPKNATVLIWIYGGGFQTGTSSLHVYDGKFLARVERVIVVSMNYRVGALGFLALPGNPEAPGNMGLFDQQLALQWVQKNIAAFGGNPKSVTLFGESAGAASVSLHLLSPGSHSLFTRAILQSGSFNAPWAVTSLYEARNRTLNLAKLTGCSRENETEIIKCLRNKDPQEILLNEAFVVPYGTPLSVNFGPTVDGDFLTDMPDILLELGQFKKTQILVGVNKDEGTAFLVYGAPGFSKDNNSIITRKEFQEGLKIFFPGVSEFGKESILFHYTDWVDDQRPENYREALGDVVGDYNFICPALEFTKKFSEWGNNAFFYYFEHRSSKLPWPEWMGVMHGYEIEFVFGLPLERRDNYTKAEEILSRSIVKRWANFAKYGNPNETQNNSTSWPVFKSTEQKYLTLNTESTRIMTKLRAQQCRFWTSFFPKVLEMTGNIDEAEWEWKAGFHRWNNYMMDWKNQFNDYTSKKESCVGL

Structure (SMILES)	inhibition [1]	inhibition (Cholinesterase [2])	IC50 (Cholinesterase [3])
c1ccc2[nH]c(CN(CCN(Cc3nc4ccccc4[nH]3)Cc3nc4ccccc4[nH]3)Cc3nc4ccccc4[nH]3)nc2c1	inactive	92%	1360 nM
CCC(C)C(NC(=O)C(CC(C)C)NC(=O)C(N)Cc1c[nH]c2ccccc12)C(=O)NC(Cc1c[nH]c2ccccc12)C(=O)O (stereo not drawn) (H-WLIW-OH; configuration not given here)		38.9%	
COC(=O)[C@H](Cc1c[nH]c2ccccc12)NC(=O)[C@H](Cc1c[nH]c2ccccc12)NC(=O)[C@H](Cc1c[nH]c2ccccc12)NC(=O)OC(C)(C)C (Boc-Trp-Trp-Trp-OMe)		79.9%	
Cn1c(=O)c2[nH]c(CCCc3nc4c(c(=O)n(C)c(=O)n4C)n3C)nc2n(C)c1=O		25.3%	
c1ccc2c(CN3CCN(Cc4c[nH]c5ccccc45)CC3)c[nH]c2c1	inactive	76.5%	987 nM
O=S(=O)(Cc1nc2ccccc2[nH]1)Cc1nc2ccccc2[nH]1		62%	
Cc1nc(C(N)=S)sc1C(=O)CC(=O)C(=O)Nc1nc2ccccc2[nH]1		43.5%	
O=C(Nc1ccccc1)c1cc(S(=O)(=O)Nc2nc3cccnc3[nH]2)c(SSc2cc(Cl)c(C(=O)Nc3ccccc3)cc2S(=O)(=O)Nc2nc3cccnc3[nH]2)cc1Cl		9.9%	
Cc1[nH]c2ccccc2c1C1=CC(c2c(C)[nH]c3ccccc23)CCC1 (stereo not drawn)		75%	
Cc1cc(CSCCc2nc3ccccc3[nH]2)c(O)c(CSCCc2nc3ccccc3[nH]2)c1	inactive	101%	32 nM
Cc1ccc2[nH]/c(=N/S(=O)(=O)c3cc(C)c(Cl)cc3S)[nH]c2c1		50.9%	
Cc1ccc(S(=O)(=O)OCC2CCc3[nH]c4ccccc4c3C2)cc1 (stereo not drawn)		73.1%	
COC(=O)C(Cc1c[nH]c2ccccc12)NC(=O)C(Cc1c[nH]c2ccccc12)NC(=O)OCc1ccccc1 (stereo not drawn)		92.9%	
O=c1[nH]nc(Cc2ccc(Cl)cc2)n1N=Cc1c[nH]c2ccccc12		20.7%	
O=c1[nH]c2cc(Cl)ccc2n1C1CCN(CCCC(c2ccc(F)cc2)c2ccc(F)cc2)CC1		43.2%	
Cn1c(=O)c2[nH]c(CCCc3nc4c([nH]3)c(=O)n(C)c(=O)n4C)nc2n(C)c1=O		19.1%	
COc1ccc(OC)c2[nH]c(CCc3nc4c(OC)ccc(OC)c4[nH]3)nc12		16.7%	
Cc1cc(S(=O)(=O)N=c2[nH]c3cccc(C)c3[nH]2)c(SCc2ccccc2)cc1Cl		55.6%	
COC(=O)C(Cc1c[nH]c2ccccc12)NC(=O)C(Cc1c[nH]c2ccccc12)NC(=O)C(Cc1c[nH]c2ccccc12)NC(=O)C(Cc1c[nH]c2ccccc12)NC(=O)C(Cc1c[nH]c2ccccc12)NC(=O)C(Cc1c[nH]c2ccccc12)NC(=O)OC(C)(C)C (stereo not drawn) (Boc-WWWWWW-OMe; configuration not given here)		46%	
CCn1c(CCCc2nc3c(=O)n(C)c(=O)n(C)c3[nH]2)nc2c1c(=O)n(C)c(=O)n2C		15.4%	

Structure (SMILES)	inhibition [1]	inhibition (Cholinesterase [2])	IC50 (Cholinesterase [3])
Cc1[nH]c2ccccc2c1C(=O)CC1(O)C(=O)Nc2c(Cl)cc(Cl)cc21 (stereo not drawn)		47.5%	
Cc1ccc2nc(CN(CCN(Cc3nc4ccc(C)cc4[nH]3)Cc3nc4ccc(C)cc4[nH]3)Cc3nc4ccc(C)cc4[nH]3)[nH]c2c1		41.7%	
Cc1cc(S(=O)(=O)NC2=Nc3cccc4cccc(c34)N2)c(S)cc1Cl		50.3%	
Cn1c(=O)c2nc(CS(=O)(=O)Cc3nc4c(=O)n(C)c(=O)n(C)c4[nH]3)[nH]c2n(C)c1=O		8%	
Cn1c(=O)c2[nH]c(C(O)C(O)c3nc4c([nH]3)c(=O)n(C)c(=O)n4C)nc2n(C)c1=O (stereo not drawn)		25%	
Cn1c(=O)c2nc(COCc3nc4c(=O)n(C)c(=O)n(C)c4[nH]3)[nH]c2n(C)c1=O		26.5%	
Fc1ccc2[nH]c3c(c2c1)C[PH](Cc1cccc2ccccc12)(c1ccccc1)CC3		97.5%	
Cc1ccc(S(=O)(=O)C(C#N)(Cc2c[nH]c3ccccc23)Cc2c[nH]c3ccccc23)cc1		48.5%	
Cn1c(=O)c2[nH]c(CCc3nc4c([nH]3)c(=O)n(C)c(=O)n4C)nc2n(C)c1=O		17.9%	
Cc1cc(S(=O)(=O)N=c2[nH]c3ccccc3[nH]2)c(SCc2ccccc2)cc1Cl		65.7%	
Cc1c(C(=O)CSc2nc3ccccc3[nH]2)c(=O)n(-c2ccccc2)n1C		62.7%	
c1ccc2[nH]c(SCCSc3nc4ccccc4[nH]3)nc2c1	inactive	81.2%	3030 nM
Cc1cc(S(=O)(=O)Nc2nc3ccccc3[nH]2)c(S)cc1Cl		48.5%	
CCN(CC)C(C)CN1c2ccccc2Sc2ccccc21 (stereo not drawn) [ETHOPROPAZINE]			210 nM
Cn1c(=O)c2nc(CCCCc3nc4ccccc4[nH]3)[nH]c2n(C)c1=O		25.6%	
Oc1ccc2[nH]c3c(c2c1)C[PH](Cc1cccc2ccccc12)(c1ccccc1)CC3		99.7%	
COC(=O)C(Cc1c[nH]c2ccccc12)NC(=O)C(Cc1c[nH]c2ccccc12)NC(=O)C(Cc1c[nH]c2ccccc12)NC(=O)C(Cc1c[nH]c2ccccc12)NC(=O)OC(C)(C)C (stereo not drawn) (Boc-WWWW-OMe; configuration not given here)		51.2%	
Cc1cc2nc(C(O)C(O)C(O)C(O)c3nc4cc(C)c(C)cc4[nH]3)[nH]c2cc1C (stereo not drawn)		4%	
N#CC(C(=O)CCc1nc2ccccc2[nH]1)c1c(Cl)cccc1Cl (stereo not drawn)		32.7%	
CN(C)c1ccc(C=CC(=O)c2nc3ccccc3[nH]2)cc1		43.2%	
